Tests used:
Assay type in all cases: in vivo, human
[1] = Example 1: adverse events and discontinuations during double-blind treatment
Method: A multi-centered, placebo-controlled, randomized, parallel group trial with fixed dose levels and designed to identify appropriate doses of bremelanotide administered by subcutaneous injection in premenopausal females with FSAD and/or HSDD, under the conditions of home use, was conducted. Subjects received a single dose of placebo (subject-blinded) in-clinic followed by 4 weeks of subject-blinded placebo treatment at home (subjects self-administered treatment as needed). Subjects who continued to qualify for the trial then received 2 single in-clinic doses of randomized treatment (double-blind; approximately one week apart), followed by 12 weeks of double-blind treatment at home (subjects self-administered treatment as needed).
Randomization occurred immediately prior to the first in-clinic dose of double-blind treatment. Study drug and placebo was provided as pre-filled syringes in 0.3 mL volume, with subjects instructed on self-administration into the anterior thigh or abdomen.

[2] = Subcutaneous trials in males: vomiting and tolerability; settings: for subjects experiencing vomiting (mild or moderate): males
[3] = Adverse events with single-dose SC administration (Trials -14, -06, -10)
Method: Subcutaneous dosing was tested in 5 Phase 1 trials (3 in females, 2 in males) and one Phase 2 trial (males). The most common adverse events associated with single-dose SC bremelanotide administration (Trials −14, −06, and −10) were somnolence (30%), flushing (15%), nausea (19%), and vomiting (10%).

[4] = test system: premenopausal females with FSAD and/or HSDD; experiment: Example 1: placebo-controlled at-home trial of subcutaneous bremelanotide, efficacy (SSEs, FSFI, FSDS-DAO)
Method: A multi-centered, placebo-controlled, randomized, parallel group trial with fixed dose levels and designed to identify appropriate doses of bremelanotide administered by subcutaneous injection in premenopausal females with FSAD and/or HSDD, under the conditions of home use, was conducted. […] Subjects who continued to qualify for the trial then received 2 single in-clinic doses of randomized treatment (double-blind; approximately one week apart), followed by 12 weeks of double-blind treatment at home (subjects self-administered treatment as needed). Subjects were randomized (1:1:1:1) to one of four study treatment groups (placebo or doses with 0.75, 1.25, or 1.75 mg net weight bremelanotide). Randomization occurred immediately prior to the first in-clinic dose of double-blind treatment. Study drug and placebo was provided as pre-filled syringes in 0.3 mL volume, with subjects instructed on self-administration into the anterior thigh or abdomen. Enrolled subjects were premenopausal women who met the diagnostic criteria for […], or mixed […], utilizing a diagnostic screening guide including categorization of the sexual dysfunction as both acquired (vs. lifelong) and generalized (vs. situational). Subjects enrolled had previously been sexually “functional;” that is, experienced sexual arousal during sexual activity and/or a normal level of desire at some point in the past for a period of at least 2 years. […] Enrolled subjects were provided with an electronic diary system (eDiary) with instructions to complete an FSEP-R questionnaire with each sexual encounter. At selected in-clinic visits, subjects completed other assessment questionnaires, including […]-DAO, […] and WITS-9. In addition, various vital sign measures were conducted and blood and urine samples collected at selected in-clinic visits. […] The measurement period was defined as the number of events during the last four weeks of treatment minus the number of events during the baseline period, with outcomes reported for pooled results of women taking the two highest bremelanotide dose levels versus placebo. […] The FSFI is a 19-item questionnaire which provides for an additional measurement of changes over a longer recall period. • FSFI total score improvement (mean change of 3.55 vs. 1.88, p=0.0017) • Reduced associated distress related to sexual dysfunction, as measured by the Female Sexual Distress Scale-DAO (FSDS-DAO). The FSDS-DAO 15-item questionnaire is designed to assess and quantify the change in personal distress associated with […]-DAO total score improvement (mean change of -11.1 vs. -6.8, p=0.036).

[5] = pooled 1.25 mg and 1.75 mg doses, baseline to end of study

CCCC[C@H](NC(C)=O)C(=O)N[C@H]1CC(=O)NCCCC[C@@H](C(=O)O)NC(=O)[C@H](Cc2c[nH]c3ccccc23)NC(=O)[C@H](CCCNC(=N)N)NC(=O)[C@@H](Cc2ccccc2)NC(=O)[C@H](Cc2c[nH]cn2)NC1=O [bremelanotide, Ac-Nle-cyclo(-Asp-His-D-Phe-Arg-Trp-Lys)-OH]
patients discontinued based on adverse events ([1]; 0.75 mg): 2
patients discontinued based on preset blood pressure change criterion ([1]; 0.75 mg): 4
Any adverse event leading to withdrawal, number of subjects ([1]; 0.75 mg SC (N = 100)): 2
Any adverse event leading to withdrawal, percent of subjects ([1]; 0.75 mg SC (N = 100)): (2%)
Any adverse event, number of subjects ([1]; 0.75 mg SC (N = 100)): 64
Any adverse event, percent of subjects ([1]; 0.75 mg SC (N = 100)): (64%)
Flushing leading to withdrawal, number of subjects ([1]; 0.75 mg SC (N = 100)): 0
Flushing, number of subjects ([1]; 0.75 mg SC (N = 100)): 17
Flushing, percent of subjects ([1]; 0.75 mg SC (N = 100)): (17%)
Headache, number of subjects ([1]; 0.75 mg SC (N = 100)): 9
Headache, percent of subjects ([1]; 0.75 mg SC (N = 100)): (9%)
Hypertension leading to withdrawal, number of subjects ([1]; 0.75 mg SC (N = 100)): 2
Hypertension leading to withdrawal, percent of subjects ([1]; 0.75 mg SC (N = 100)): (2%)
Injection-site pain, number of subjects ([1]; 0.75 mg SC (N = 100)): 6
Injection-site pain, percent of subjects ([1]; 0.75 mg SC (N = 100)): (6%)
Injection-site pruritus, number of subjects ([1]; 0.75 mg SC (N = 100)): 4
Injection-site pruritus, percent of subjects ([1]; 0.75 mg SC (N = 100)): (4%)
Nausea leading to withdrawal, number of subjects ([1]; 0.75 mg SC (N = 100)): 0
Nausea, number of subjects ([1]; 0.75 mg SC (N = 100)): 18
Nausea, percent of subjects ([1]; 0.75 mg SC (N = 100)): (18%)
Upper respiratory tract infection, number of subjects ([1]; 0.75 mg SC (N = 100)): 8
Upper respiratory tract infection, percent of subjects ([1]; 0.75 mg SC (N = 100)): (8%)
Vomiting leading to withdrawal, number of subjects ([1]; 0.75 mg SC (N = 100)): 0
patients discontinued based on adverse events ([1]; 1.25 mg): 4
patients discontinued based on preset blood pressure change criterion ([1]; 1.25 mg): 9
Any adverse event leading to withdrawal, number of subjects ([1]; 1.25 mg SC (N = 99)): 4
Any adverse event leading to withdrawal, percent of subjects ([1]; 1.25 mg SC (N = 99)): (4%)
Any adverse event, number of subjects ([1]; 1.25 mg SC (N = 99)): 61
Any adverse event, percent of subjects ([1]; 1.25 mg SC (N = 99)): (62%)
Flushing leading to withdrawal, number of subjects ([1]; 1.25 mg SC (N = 99)): 1
Flushing leading to withdrawal, percent of subjects ([1]; 1.25 mg SC (N = 99)): (1%)
Flushing, number of subjects ([1]; 1.25 mg SC (N = 99)): 14
Flushing, percent of subjects ([1]; 1.25 mg SC (N = 99)): (14%)
Headache, number of subjects ([1]; 1.25 mg SC (N = 99)): 9
Headache, percent of subjects ([1]; 1.25 mg SC (N = 99)): (9%)
Hypertension leading to withdrawal, number of subjects ([1]; 1.25 mg SC (N = 99)): 0
Injection-site pain, number of subjects ([1]; 1.25 mg SC (N = 99)): 6
Injection-site pain, percent of subjects ([1]; 1.25 mg SC (N = 99)): (6%)
Injection-site pruritus, number of subjects ([1]; 1.25 mg SC (N = 99)): 4
Injection-site pruritus, percent of subjects ([1]; 1.25 mg SC (N = 99)): (4%)
Nausea leading to withdrawal, number of subjects ([1]; 1.25 mg SC (N = 99)): 0
Nausea, number of subjects ([1]; 1.25 mg SC (N = 99)): 22
Nausea, percent of subjects ([1]; 1.25 mg SC (N = 99)): (22%)
Upper respiratory tract infection, number of subjects ([1]; 1.25 mg SC (N = 99)): 5
Upper respiratory tract infection, percent of subjects ([1]; 1.25 mg SC (N = 99)): (5%)
Vomiting leading to withdrawal, number of subjects ([1]; 1.25 mg SC (N = 99)): 1
Vomiting leading to withdrawal, percent of subjects ([1]; 1.25 mg SC (N = 99)): (1%)
patients discontinued based on adverse events ([1]; 1.75 mg): 8
patients discontinued based on preset blood pressure change criterion ([1]; 1.75 mg): 7
Any adverse event leading to withdrawal, number of subjects ([1]; 1.75 mg SC (N = 98)): 8
Any adverse event leading to withdrawal, percent of subjects ([1]; 1.75 mg SC (N = 98)): (8%)
Any adverse event, number of subjects ([1]; 1.75 mg SC (N = 98)): 67
Any adverse event, percent of subjects ([1]; 1.75 mg SC (N = 98)): (68%)
Flushing leading to withdrawal, number of subjects ([1]; 1.75 mg SC (N = 98)): 1
Flushing leading to withdrawal, percent of subjects ([1]; 1.75 mg SC (N = 98)): (1%)
Flushing, number of subjects ([1]; 1.75 mg SC (N = 98)): 17
Flushing, percent of subjects ([1]; 1.75 mg SC (N = 98)): (17%)
Headache, number of subjects ([1]; 1.75 mg SC (N = 98)): 14
Headache, percent of subjects ([1]; 1.75 mg SC (N = 98)): (14%)
Hypertension leading to withdrawal, number of subjects ([1]; 1.75 mg SC (N = 98)): 1
Hypertension leading to withdrawal, percent of subjects ([1]; 1.75 mg SC (N = 98)): (1%)
Injection-site pain, number of subjects ([1]; 1.75 mg SC (N = 98)): 7
Injection-site pain, percent of subjects ([1]; 1.75 mg SC (N = 98)): (7%)
Injection-site pruritus, number of subjects ([1]; 1.75 mg SC (N = 98)): 6
Injection-site pruritus, percent of subjects ([1]; 1.75 mg SC (N = 98)): (6%)
Nausea leading to withdrawal, number of subjects ([1]; 1.75 mg SC (N = 98)): 3
Nausea leading to withdrawal, percent of subjects ([1]; 1.75 mg SC (N = 98)): (3%)
Nausea, number of subjects ([1]; 1.75 mg SC (N = 98)): 24
Nausea, percent of subjects ([1]; 1.75 mg SC (N = 98)): (24%)
Upper respiratory tract infection, number of subjects ([1]; 1.75 mg SC (N = 98)): 4
Upper respiratory tract infection, percent of subjects ([1]; 1.75 mg SC (N = 98)): (4%)
Vomiting leading to withdrawal, number of subjects ([1]; 1.75 mg SC (N = 98)): 3
Vomiting leading to withdrawal, percent of subjects ([1]; 1.75 mg SC (N = 98)): (3%)
subjects discontinuing due to an adverse event ([1]; 1.75 mg subcutaneous dose): 8%
tolerability during the trial ([1]; 0.75-1.75 mg SC): well-tolerated
serious adverse events considered related to treatment ([1]; of 7 serious adverse events): none
subjects experiencing vomiting (mild or moderate) ([2]; 7.5 mg dose level): 1 of 6
subjects experiencing vomiting (mild or moderate) ([2]; 5-mg dose level): 1 of 6
subjects experiencing vomiting (mild or moderate) ([2]; 10-mg dose level): 3 of 6
tolerability ([2]; single subcutaneous doses of 4 and 6 mg, male subjects with ED and preexisting hypertension): improved tolerability
flushing incidence [3]: 15%
nausea incidence [3]: 19%
somnolence incidence [3]: 30%
vomiting incidence [3]: 10%
efficacy on all key endpoints in HSDD-only and mixed HSDD/FSAD subgroups ([4]; 1.25 mg, 1.75 mg, and/or 1.25/1.75 mg pooled, exploratory analyses): statistically significant efficacy or a clinically significant trend versus placebo
Satisfying Sexual Events (SSEs), mean at baseline ([4]; pooled 1.25 mg and 1.75 mg doses): 1.6
FSDS-DAO total score improvement, mean change [4, 5]: −11.1
FSFI total score improvement, mean change [4, 5]: 3.55
increase in SSEs [4, 5]: 50%
Satisfying Sexual Events (SSEs), mean at end of study ([4]; pooled 1.25 mg and 1.75 mg doses, last four weeks of treatment): 2.4
most optimal dose for efficacy ([4]; subcutaneous): 1.75 mg
women with end-of-study FSFI and FSDS-DAO total score levels above 26.5 and 18 ([4]; versus placebo, exploratory analysis): higher percentage of women

Reference: US10286034B2, “Uses of bremelanotide in therapy for female sexual dysfunction” (Palatin Technologies, Inc., priority 2012, dated 2019)
